Measurements from ChEMBL document CHEMBL5365411, “Synthesis of 1-(4-(dimethylamino)phenyl)-3,4-diphenyl-1H-pyrrole-2,5-dione analogues and their anti-inflammatory activities in lipopolysaccharide-induced BV2 cells” (Bioorg Med Chem Lett, 2023).
The source made the active and inactive calls. No cut-off for these calls is given here.

Legend:
[1] = Cytotoxicity against LPS-induced mouse BV-2 cells assessed as cell viability at 20 uM incubated for 24 hrs by MTT assay relative to control; assay type: toxicity, cell-based; details: LPS-induced BV-2 cells, read-out: Activity
BV-2 [2] = assay: Inhibition of LPS-induced NO release in mouse BV-2 cells at 20 uM incubated for 24 hrs by Griess assay relative to control; assay type: functional
BV-2 [3] = assay: Inhibition of LPS-induced NO release in mouse BV-2 cells incubated for 24 hrs by Griess assay; assay type: functional, cell-based; details: for IC50: BV-2, 24 h
BV-2 [4] = assay: Inhibition of LPS-induced NO release in mouse BV-2 cells up to 100 uM incubated for 24 hrs by Griess assay; assay type: functional, cell-based
RAW264.7 = assay: Inhibition of LPS-induced NO release in mouse RAW264.7 cells at 15 uM incubated for 24 hrs by Griess assay relative to control; assay type: functional
BV-2 [5] = assay: Anti-inflammatory activity against LPS-induced mouse BV-2 cells assessed as reduction in COX-2 mRNA expression pre-incubated for 1 hrs followed by LPS addition and measured after 6 hrs by RT-PCR method; assay type: functional, cell-based; details: dose 5-20 µM, time 7.0 hrs
BV-2 [6] = assay: Inhibition of LPS-induced NFkappaB activation in mouse BV2 cells assessed as reduction in p65 phosphorylated protein expression level pre-incubated for 30 mins followed by LPS addition by Western blot analysis; assay type: cell-based; details: dose 5-20 µM
BV-2 [7] = assay: Anti-inflammatory activity against LPS-induced mouse BV-2 cells assessed as reduction in COX-2 protein expression pre-incubated for 1 hrs followed by LPS addition and measured after 18 hrs by Western blot analysis; assay type: functional, cell-based; details: dose 5-20 µM, time 19.0 hrs
BV-2 [8] = assay: Inhibition of LPS-induced NFkappaB activation in mouse BV2 cells assessed as reduction in IkappaBalpha phosphorylated protein expression level pre-incubated for 30 mins followed by LPS addition by Western blot analysis; assay type: cell-based; details: dose 5-20 µM
BV-2 [9] = assay: Anti-inflammatory activity against LPS-induced mouse BV-2 cells assessed as reduction in iNOS mRNA expression pre-incubated for 1 hrs followed by LPS addition and measured after 6 hrs by RT-PCR method; assay type: functional, cell-based; details: dose 5-20 µM, time 7.0 hrs
BV-2 [10] = assay: Cytotoxicity against LPS-induced mouse BV-2 cells assessed as cell viability at 2.5 to 20 uM incubated for 24 hrs by MTT assay; assay type: toxicity, cell-based; details: bv-2, 24 h, dose 2.5-20 µM
[11] = Inhibition of LPS-induced ERK phosphorylation in mouse BV-2 cells pretreated for 30 mins followed by LPS stimulation by Western blot analysis; assay type: cell-based; details: dose 5-20 µM
[12] = molecular target: MAP kinase p38 (Mus musculus) (UniProt P47811+O08911+Q9WUI1+Q9Z1B7); assay: Inhibition of LPS-induced p38 phosphorylation in mouse BV-2 cells pretreated for 30 mins followed by LPS stimulation by Western blot analysis; assay type: cell-based; details: dose 5-20 µM
BV-2 [13] = assay: Anti-inflammatory activity against LPS-induced mouse BV-2 cells assessed as reduction in IL-1beta mRNA expression pre-incubated for 1 hrs followed by LPS addition and measured after 6 hrs by RT-PCR method; assay type: functional, cell-based; details: dose 5-20 µM, time 7.0 hrs
BV-2 [14] = assay: Anti-inflammatory activity against LPS-induced mouse BV-2 cells assessed as reduction in IL-6 mRNA expression pre-incubated for 1 hrs followed by LPS addition and measured after 6 hrs by RT-PCR method; assay type: functional, cell-based; details: dose 5-20 µM, time 7.0 hrs
[15] = molecular target: c-Jun N-terminal kinase (Mus musculus) (UniProt Q91Y86+Q9WTU6+Q61831); assay: Inhibition of LPS-induced JNK phosphorylation in mouse BV-2 cells pretreated for 30 mins followed by LPS stimulation by Western blot analysis; assay type: cell-based; details: dose 5-20 µM
Sequence of c-Jun N-terminal kinase (Mus musculus) (Q61831 whole entry, looked up): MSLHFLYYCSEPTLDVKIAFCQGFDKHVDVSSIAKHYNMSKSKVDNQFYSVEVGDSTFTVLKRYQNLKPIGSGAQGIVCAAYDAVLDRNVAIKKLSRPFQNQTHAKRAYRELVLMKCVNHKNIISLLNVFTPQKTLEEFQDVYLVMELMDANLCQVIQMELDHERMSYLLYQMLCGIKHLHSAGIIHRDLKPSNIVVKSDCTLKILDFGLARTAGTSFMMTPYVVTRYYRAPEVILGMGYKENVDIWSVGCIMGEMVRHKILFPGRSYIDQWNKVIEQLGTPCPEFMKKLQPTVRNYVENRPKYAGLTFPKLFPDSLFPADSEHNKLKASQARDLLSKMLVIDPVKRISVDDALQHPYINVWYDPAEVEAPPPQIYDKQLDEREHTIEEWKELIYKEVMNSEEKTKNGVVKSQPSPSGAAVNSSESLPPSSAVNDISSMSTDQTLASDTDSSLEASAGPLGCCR
Sequence of c-Jun N-terminal kinase (Mus musculus) (Q91Y86 whole entry, looked up): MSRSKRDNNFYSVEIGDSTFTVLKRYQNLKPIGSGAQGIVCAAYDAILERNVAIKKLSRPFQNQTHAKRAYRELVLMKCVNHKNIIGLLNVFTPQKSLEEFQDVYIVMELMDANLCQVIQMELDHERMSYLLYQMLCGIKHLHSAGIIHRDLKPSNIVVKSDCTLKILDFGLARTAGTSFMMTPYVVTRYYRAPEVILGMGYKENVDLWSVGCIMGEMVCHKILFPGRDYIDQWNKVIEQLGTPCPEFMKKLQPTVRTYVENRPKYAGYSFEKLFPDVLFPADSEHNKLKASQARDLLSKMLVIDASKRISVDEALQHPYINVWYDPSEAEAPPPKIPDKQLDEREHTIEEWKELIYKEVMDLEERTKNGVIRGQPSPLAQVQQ
Sequence of c-Jun N-terminal kinase (Mus musculus) (Q9WTU6 whole entry, looked up): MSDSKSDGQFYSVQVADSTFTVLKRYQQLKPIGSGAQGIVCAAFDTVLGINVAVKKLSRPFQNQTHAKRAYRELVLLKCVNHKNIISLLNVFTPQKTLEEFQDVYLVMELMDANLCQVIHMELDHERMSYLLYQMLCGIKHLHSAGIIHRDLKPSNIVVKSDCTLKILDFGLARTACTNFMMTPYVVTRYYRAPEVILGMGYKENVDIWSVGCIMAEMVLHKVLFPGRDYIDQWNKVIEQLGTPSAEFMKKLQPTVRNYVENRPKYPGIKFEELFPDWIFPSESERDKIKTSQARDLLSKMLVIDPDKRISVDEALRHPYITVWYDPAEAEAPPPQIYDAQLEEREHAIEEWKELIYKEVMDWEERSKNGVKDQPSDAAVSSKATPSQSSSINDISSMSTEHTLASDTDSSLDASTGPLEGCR

BV-2 [16] = assay: Anti-inflammatory activity against LPS-induced mouse BV-2 cells assessed as reduction in TNF-alpha mRNA expression pre-incubated for 1 hrs followed by LPS addition and measured after 6 hrs by RT-PCR method; assay type: functional, cell-based; details: dose 5-20 µM, time 7.0 hrs
BV-2 [17] = assay: Anti-inflammatory activity against LPS-induced mouse BV-2 cells assessed as reduction in iNOS protein expression pre-incubated for 1 hrs followed by LPS addition and measured after 18 hrs by Western blot analysis; assay type: functional, cell-based; details: dose 5-20 µM, time 19.0 hrs

O=C1C(c2ccccc2)=C(c2ccccc2)C(=O)N1c1ccc(OC(F)(F)F)cc1
viability at 24 h, 20 µM [1]: 94.5% | inhibition at 20 µM (BV-2 [2]): 12.9%

Cc1ccc(N2C(=O)C(c3ccccc3)=C(c3ccccc3)C2=O)cc1
viability at 24 h, 20 µM [1]: 97.8% | inhibition at 20 µM (BV-2 [2]): 25.8%

O=C1C(c2ccccc2)=C(c2ccccc2)C(=O)N1c1ccc(C(F)(F)F)cc1
viability at 24 h, 20 µM [1]: 99.4% | inhibition at 20 µM (BV-2 [2]): 12.4%

N#Cc1ccc(N2C(=O)C(c3ccccc3)=C(c3ccccc3)C2=O)cc1
viability at 24 h, 20 µM [1]: 80% | inhibition at 20 µM (BV-2 [2]): 6.9%

O=C1C(c2ccccc2)=C(c2ccccc2)C(=O)N1CCc1ccccc1
viability at 24 h, 20 µM [1]: 100% | inhibition at 20 µM (BV-2 [2]): 14.2%

CC(C)(C)c1ccc(N2C(=O)C(c3ccccc3)=C(c3ccccc3)C2=O)cc1
viability at 24 h, 20 µM [1]: 100% | inhibition at 20 µM (BV-2 [2]): 18.4%

COc1ccc(N2C(=O)C(c3ccccc3)=C(c3ccccc3)C2=O)cc1
viability at 24 h, 20 µM [1]: 97.2% | inhibition at 20 µM (BV-2 [2]): 32.3%

O=C1C(c2ccccc2)=C(c2ccccc2)C(=O)N1c1ccc(F)cc1
viability at 24 h, 20 µM [1]: 100% | inhibition at 20 µM (BV-2 [2]): 10.3%

Nc1ccc(N2C(=O)C(c3ccccc3)=C(c3ccccc3)C2=O)cc1
viability at 24 h, 20 µM [1]: 90.2% | inhibition at 20 µM (BV-2 [2]): 27.6%

O=C1CCC(N2C(=O)C(c3ccccc3)=C(c3ccccc3)C2=O)C(=O)N1 (centres undefined)
viability at 24 h, 20 µM [1]: 98.5% | IC50 (BV-2 [3]): > 50 µM | inhibition at 20 µM (BV-2 [2]): 10.2%

O=C1C(c2ccccc2)=C(c2ccccc2)C(=O)N1c1ccc([N+](=O)[O-])cc1
viability at 24 h, 20 µM [1]: 99.4% | inhibition at 20 µM (BV-2 [2]): 19.3%

O=C1CCC(N2C(=O)c3ccccc3C2=O)C(=O)N1 (centres undefined) [THALIDOMIDE]
inhibition (BV-2 [4]): inactive | viability at 24 h, 20 µM [1]: 93.5% | inhibition at 20 µM (BV-2 [2]): 0% | inhibition at 15 µM (RAW264.7): 15%

O=C1C(c2ccccc2)=C(c2ccccc2)C(=O)N1c1ccc(Br)cc1
viability at 24 h, 20 µM [1]: 95.7% | inhibition at 20 µM (BV-2 [2]): 11.5%

CN(C)c1cccc(N2C(=O)C(c3ccccc3)=C(c3ccccc3)C2=O)c1
viability at 24 h, 20 µM [1]: 90.2% | IC50 (BV-2 [3]): 12.7 µM | inhibition at 20 µM (BV-2 [2]): 82.1%

O=C1C(c2ccccc2)=C(c2ccccc2)C(=O)N1Cc1ccccc1
viability at 24 h, 20 µM [1]: 100% | inhibition at 20 µM (BV-2 [2]): 21.9%

O=C1C(c2ccccc2)=C(c2ccccc2)C(=O)N1c1ccc(N2CCCCC2)cc1
viability at 24 h, 20 µM [1]: 87.4% | inhibition at 20 µM (BV-2 [2]): 5.8%

O=C1C(c2ccccc2)=C(c2ccccc2)C(=O)N1c1ccccc1
viability at 24 h, 20 µM [1]: 93.3% | inhibition at 20 µM (BV-2 [2]): 22.5%

CC(C)(C)OC(=O)Nc1ccc(N2C(=O)C(c3ccccc3)=C(c3ccccc3)C2=O)cc1
viability at 24 h, 20 µM [1]: 97.1% | inhibition at 20 µM (BV-2 [2]): 39.6%

CN(C)c1ccccc1N1C(=O)C(c2ccccc2)=C(c2ccccc2)C1=O
viability at 24 h, 20 µM [1]: 100% | IC50 (BV-2 [3]): 13.3 µM | inhibition at 20 µM (BV-2 [2]): 81.6%

O=C1C(c2ccccc2)=C(c2ccccc2)C(=O)N1c1ccc(Cl)cc1
viability at 24 h, 20 µM [1]: 93.9% | inhibition at 20 µM (BV-2 [2]): 16%

CN(C)c1ccc(N2C(=O)C(c3ccccc3)=C(c3ccccc3)C2=O)cc1
Activity (BV-2 [5]): Dose-Dependent Effect | inhibition (BV-2 [6]): Dose-Dependent Effect | viability at 24 h, 20 µM [1]: 98.9% | Activity (BV-2 [7]): Dose-Dependent Effect | inhibition (BV-2 [8]): Dose-Dependent Effect | inhibition (BV-2 [3]): Dose-Dependent Effect | IC50 (BV-2 [3]): 7.1 µM | Activity (BV-2 [9]): Dose-Dependent Effect | Activity (BV-2 [10]): Non-Toxic | inhibition [11]: inactive | inhibition [12]: Dose-Dependent Effect | inhibition at 20 µM (BV-2 [2]): 83.5% | Activity (BV-2 [13]): Dose-Dependent Effect | Activity (BV-2 [14]): Dose-Dependent Effect | inhibition [15]: inactive | Activity (BV-2 [16]): Dose-Dependent Effect | Activity (BV-2 [17]): Dose-Dependent Effect

O=C1C(c2ccccc2)=C(c2ccccc2)C(=O)N1c1ccc(I)cc1
viability at 24 h, 20 µM [1]: 100% | inhibition at 20 µM (BV-2 [2]): 22.5%
